Where two headings read alike, the source gives them in different places.
Assays:
CDK2/cyclin A2 = molecular target: T1, CDK2/cyclin A2 (Homo sapiens, UniProt P24941); assay: Human CDK2/cyclin A2 inhibitory activity (QS S Assist CDK2/Cyclin A2_FP Kit, IMAP fluorescence polarization); assay type: biochemical
T1 construct: purchased Carna Biosciences, Inc. QS S Assist CDK2/Cyclin A2_FP Kit
Procedure, shortened: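 Kinase activity read as fluorescence polarization (485/535 nm) after phosphorylated fluorescent substrate binds IMAP reagent (30 min, RT, dark). Enzyme (2.5 ng/well) reacted 60 min at RT with ATP/substrate/metal in HEPES pH 7.4 buffer with Tween 20 and DTT; no-enzyme wells define 0% activity; IC50 by curve fit.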

CDK4/cyclin D3 = molecular target: T2, CDK4/cyclin D3 (Homo sapiens, UniProt P11802); assay: Human CDK4/cyclin D3 inhibitory activity (QS S Assist CDK4/Cyclin D3_FP Kit, IMAP fluorescence polarization); assay type: biochemical
T2 construct: purchased Carna Biosciences, Inc. QS S Assist CDK4/Cyclin D3_FP Kit
T2 sequence (P11802 whole entry): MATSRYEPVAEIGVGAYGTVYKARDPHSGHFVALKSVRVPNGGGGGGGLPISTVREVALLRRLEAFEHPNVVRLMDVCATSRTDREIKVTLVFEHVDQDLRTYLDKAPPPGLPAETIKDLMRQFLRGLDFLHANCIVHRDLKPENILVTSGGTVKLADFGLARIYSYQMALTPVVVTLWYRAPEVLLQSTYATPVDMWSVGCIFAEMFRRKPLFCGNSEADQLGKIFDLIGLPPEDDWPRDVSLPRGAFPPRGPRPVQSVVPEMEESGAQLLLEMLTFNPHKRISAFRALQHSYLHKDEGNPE
T2 sequence (P30281 whole entry partner): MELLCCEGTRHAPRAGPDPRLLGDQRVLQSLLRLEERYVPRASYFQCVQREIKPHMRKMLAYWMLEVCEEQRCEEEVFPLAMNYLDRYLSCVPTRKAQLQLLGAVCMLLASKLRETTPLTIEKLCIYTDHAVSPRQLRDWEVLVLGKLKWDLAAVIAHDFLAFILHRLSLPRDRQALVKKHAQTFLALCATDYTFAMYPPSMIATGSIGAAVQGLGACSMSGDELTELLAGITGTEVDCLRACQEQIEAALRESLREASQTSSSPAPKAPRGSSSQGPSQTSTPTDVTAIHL
Procedure, shortened: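 Percent inhibition, relative to DMSO with and without enzyme, was curve-fitted to give IC50 from polarization (ex 485, em 535 nm). The 45-min room-temperature reaction used 12.5-25 ng/well enzyme, kit ATP/substrate/metal mix, and HEPES pH 7.4 buffer with Tween20 and DTT, followed by 30-min IMAP binding in the dark.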

[1] = 50% inhibitory concentration against CDK2/cyclin A2, given as class symbol
[2] = 50% inhibitory concentration against CDK4/cyclin D3, given as class symbol
[3] = Human CDK2/cyclin A2 inhibitory activity, read-out: CDK2 Activity symbol
[4] = Human CDK4/cyclin D3 inhibitory activity, read-out: CDK4 Activity symbol

Compound | IC50 (CDK2/cyclin A2; [1]) [nM] | IC50 (CDK4/cyclin D3; [2]) [nM] | IC50 (CDK2/cyclin A2; [3]) [nM] | IC50 (CDK4/cyclin D3; [4]) [nM]
CNCCOc1ccc(Nc2ncc3c(Cl)c([C@@H](C)O)nc(N[C@@H](C)COC)c3n2)nc1 [Compound 758] | ≥ 100 | 10 to 100 | – | –
CC(C)Nc1nc([C@@H](C)O)cc2cnc(Nc3ccc(NC(=O)C4CCCNC4)cn3)nc12 (stereo partly drawn) [Compound 769] | ≥ 100 | < 10 | – | –
CC(C)Nc1nc(C(C)O)cc2cnc(Nc3ccc(N4CCNC(C(F)(F)F)C4)nn3)nc12 (single isomer, unassigned) [Compound 990] | ≥ 100 | < 10 | – | –
FC(F)c1cc2cnc(Nc3ccc(N4CCNCC4)cn3)nc2c(NC2CCOCC2)n1 [Compound 4] | – | – | 10 to 100 | < 10
COC[C@H](C)Nc1nc([C@@H](C)O)c(Cl)c2cnc(Nc3ccc(N4CCC(O)CC4)nn3)nc12 [Compound 759] | ≥ 100 | 10 to 100 | – | –
CO[C@H](C)c1cc2cnc(Nc3ccc(N4CCNCC4)nn3)nc2c(N[C@H]2CCOC2)n1 [Compound 306] | – | – | ≥ 100 | 10 to 100
C[C@@H](O)c1cc2cnc(Nc3ccc(CN4CCC(O)CC4)cn3)nc2c(NC(C)(C)C)n1 [Compound 1020] | ≥ 100 | < 10 | – | –
CNC(=O)C1CCN(Cc2ccc(Nc3ncc4cc([C@@H](C)OC)nc(NC(C)C)c4n3)nc2)CC1 [Compound 278] | – | – | ≥ 100 | < 10
CCCNc1nc(C(C)=O)cc2cnc(Nc3ccc(CN4CCNCC4)cn3)nc12 [Compound 910] | ≥ 100 | 10 to 100 | – | –
C[C@@H](O)c1cc2cnc(Nc3ccc(N4CCNCC4)nn3)nc2c(N[C@H]2CCOC2)n1 [Compound 251] | – | – | ≥ 100 | < 10
C[C@@H](O)c1cc2cnc(Nc3ccc(O[C@H]4CCNC4)cn3)nc2c(N[C@H]2CCCOC2)n1 [Compound 803] | ≥ 100 | < 10 | – | –
Cc1nc(Nc2ncc3cc([C@@H](C)O)nc(NC(C)C)c3n2)ccc1N1CCNCC1 [Compound 924] | ≥ 100 | < 10 | – | –
CC(=O)c1cc2cnc(Nc3ccc(N4CCNCC4)cn3)nc2c(NC(C)C)n1 [Compound 35] | – | – | ≥ 100 | < 10
C[C@@H](O)c1cc2cnc(Nc3ccc(CN4CCC[C@@H](O)C4)cn3)nc2c(N[C@H]2CC[C@H](O)CC2)n1 [Compound 1187] | ≥ 100 | < 10 | – | –
CC(C)Nc1nc(C2CCOC2)cc2cnc(Nc3ccc(CN4CCN(CC#N)CC4)cn3)nc12 (stereo not drawn) [Compound 1012] | ≥ 100 | < 10 | – | –
CC(C)Nc1nc([C@@H](C)O)cc2cnc(Nc3ccc(N4CCN(C5COC5)CC4)nn3)nc12 [Compound 682, (R)-1-(8-(isopropylamino)-2-((6-(4-(oxetan-3-yl)piperazin-1-yl)pyridazin-3-yl)amino)pyrido[3,4-d]pyrimidin-6-yl)ethanol] | ≥ 100 | < 10 | – | –
CC(O)c1cc2cnc(Nc3ccc(N4CCNCC4)cn3)nc2c(NC2CCCOC2)n1 (stereo not drawn) [Compound 93] | – | – | ≥ 100 | < 10
C[C@@H](O)c1cc2cnc(Nc3ccc(N4CCNCC4=O)cn3)nc2c(NC2CC(F)(F)C2)n1 [Compound 1211] | ≥ 100 | 10 to 100 | – | –
CC(O)c1cc2cnc(Nc3ccc(N4CCNCC4)cn3)nc2c(Nc2ccccc2)n1 (stereo not drawn) [Compound 26] | – | – | ≥ 100 | < 10
CCCNc1nc([C@@H](C)O)cc2cnc(Nc3ccc(N4CCNCC4)cn3)nc12 [Compound 921] | ≥ 100 | < 10 | – | –
CC(C)Nc1nc([C@@H](C)O)cc2cnc(Nc3ccc(N4CCC5(CC4)CNC(=O)C5)nn3)nc12 [Compound 648] | ≥ 100 | < 10 | – | –
CO[C@H](C)c1cc2cnc(Nc3ccc(N4CCN(C(=O)OC(C)C)CC4)nn3)nc2c(NC(C)C)n1 [Compound 748] | ≥ 100 | 10 to 100 | – | –
C[C@@H](O)c1cc2cnc(Nc3ccc(CN4CCN(CCO)CC4)cn3)nc2c(NCC(F)(F)F)n1 [Compound 1170] | ≥ 100 | < 10 | – | –
CC(C)Nc1nc([C@@H](C)O)cc2cnc(Nc3ccc(N4CCC(C(=O)O)CC4)nn3)nc12 [Compound 792] | ≥ 100 | 10 to 100 | – | –
COCC(C)(C)Nc1nc([C@@H](C)O)cc2cnc(Nc3ccc(CN4CCNCC4=O)cn3)nc12 [Compound 248] | – | – | ≥ 100 | 10 to 100
COC[C@H](C)Nc1nc([C@@H](C)O)cc2cnc(Nc3ccc(N4CCNCC4=O)cn3)nc12 [Compound 752] | ≥ 100 | 10 to 100 | – | –

The next lines start with the values.

IC50 (CDK2/cyclin A2; [1]) [nM] | IC50 (CDK4/cyclin D3; [2]) [nM] | IC50 (CDK2/cyclin A2; [3]) [nM] | IC50 (CDK4/cyclin D3; [4]) [nM] | Compound
– | – | 10 to 100 | < 10 | CC(C)Nc1nc(C(F)F)cc2cnc(Nc3ccc(N4CCCC(O)C4)nn3)nc12 (stereo not drawn) [Compound 226]
– | – | ≥ 100 | 10 to 100 | COC(=O)CCc1ccc(Nc2ncc3cc(C(F)F)nc(NC(C)C)c3n2)nc1 [Compound 102]
– | – | ≥ 100 | < 10 | CN(C)CCOc1ccc(Nc2ncc3cc(C(F)F)nc(N[C@H]4CC[C@H](C(=O)O)CC4)c3n2)nc1 [Compound 385]
≥ 100 | < 10 | – | – | CC(C)Nc1nc(C(C)O)cc2cnc(Nc3ccc(OC4CNCC4F)cn3)nc12 (stereo not drawn) [Compound 673]
– | – | ≥ 100 | 10 to 100 | CC(C)Nc1nc(C(F)F)cc2cnc(Nc3ccc(C4CCN(S(C)(=O)=O)CC4)cn3)nc12 [Compound 179]
≥ 100 | < 10 | – | – | CC(C)Nc1nc([C@@H](C)O)cc2cnc(Nc3ccc(CN4CCN(C(C)CO)CC4)cn3)nc12 (stereo partly drawn) [Compound 644]
≥ 100 | < 10 | – | – | CO[C@H](C)c1cc2cnc(Nc3ccc(CN4CCNC[C@@H]4C)cn3)nc2c(NC(C)C)n1 [Compound 979]
– | – | ≥ 100 | 10 to 100 | CC(C)Nc1nc(C(F)F)cc2cnc(Nc3ccc(CCC(=O)O)cn3)nc12 [Compound 111]
≥ 100 | < 10 | – | – | CCC(O)c1cc2cnc(Nc3ccc(N4CCNCC4)cn3)nc2c(NC(C)C)n1 (stereo not drawn) [Compound 1035]
– | – | ≥ 100 | 10 to 100 | Cc1ccc(Nc2ncc3cc(C(F)F)nc(NC(C)C)c3n2)nc1 [Compound 157]
– | – | ≥ 100 | 10 to 100 | CC(C)Nc1nc(C(F)F)cc2cnc(Nc3ccc(N4CCC(CCCO)CC4)cn3)nc12 [Compound 51]
≥ 100 | < 10 | – | – | CC(C)Nc1nc([C@@H](C)O)cc2cnc(Nc3ccc(N4CCNC(C(F)(F)F)C4)cn3)nc12 (stereo partly drawn) [Compound 777]
– | – | ≥ 100 | < 10 | CC(C)Nc1nc([C@@H](C)O)cc2cnc(Nc3ccc(O[C@@H]4CCNC4)cn3)nc12 [Compound 572]
– | – | ≥ 100 | < 10 | CN(C)CCOc1ccc(Nc2ncc3cc(C(F)F)nc(N[C@H]4CC[C@H](O)CC4)c3n2)nc1 [Compound 388]
– | – | ≥ 100 | < 10 | CC(C)Nc1nc([C@@H](C)O)cc2cnc(Nc3ccc(N4CCCC(N)C4=O)cn3)nc12 (stereo partly drawn) [Compound 593]
≥ 100 | < 10 | – | – | CC(C)Nc1nc([C@@H](C)O)cc2cnc(Nc3ccc(C(=O)N4CCNC[C@@H]4C)cn3)nc12 [Compound 1166]
– | – | ≥ 100 | 10 to 100 | CC(C)Nc1nc(C(F)F)cc2cnc(Nc3ccc(OCC(C)(C)CO)cn3)nc12 [Compound 122]
≥ 100 | < 10 | – | – | CC(=O)c1cc2cnc(Nc3ccc(OCCN(C)C)cn3)nc2c(NC(C)C)n1 [Compound 734]
– | – | ≥ 100 | 10 to 100 | CO[C@H](C)c1cc2cnc(Nc3ccc(CN4CCOCC4(C)C)cn3)nc2c(NC(C)C)n1 [Compound 279]

Reference: patent US10124004B2, “Pyrido[3,4-d]pyrimidine derivative and pharmaceutically acceptable salt thereof” (Teijin Pharma Limited, priority 2015, dated 2018)
